In patent US6495376B1, “Methods and compositions for regulating protein-protein interactions” (Beth Israel Deaconess Medical Center, priority 1999, dated 2002):

Key:
[1] = system: phosphorylated tau; assay: GST-Pin1 pulldown of tau; type: binding; details: for binding to Cdc2 phosphorylated tau: tau phosphorylated by Cdc2 in vitro
Source text: Pin1 binds and regulates the function of a defined subset of mitotic phosphoproteins by interacting with conserved phosphorylated Ser/Thr-Pro motifs that are also recognized by MPM-2, a mitosis-specific, phosphorylation-dependent monoclonal antibody (mAb) (Yaffe, M. B. et al., Science 278:1957-1960 (1997); Shen, M. et al., Genes Dev. 12:706-720 (1 998)). Tau is an MPM-2 antigen phosphorylated on multiple Ser/Thr-Pro motifs during mitosis (Illenberger, S. et al., Mol Biol Cell 9:1495-1512 (1998)). Experiments were undertaken to determine whether Pin1 binds tau. Tau isoform was either synthesized by in vitro transcription and translation in the presence of ^35S-Met or produced in bacteria as an N-terminal His-tagged protein, followed by purification using NTA-Ni columns (Yaffe, M. B. et al., Science 278:1957-1960 (1997); Shen, M. et al., Genes Dev. 12:706-720 (1998)). To generate interphase- and mitosis-specific phosphorylated form of tau, tau was incubated with Xenopus interphase and mitotic extracts, respectively (Shen, M. et al., Genes Dev. 12:706-720 (1998)). To prepare Cdc2 phosphorylated tau, purified recombinant tau was incubated with purified cyclin B/Cdc2 (UBI) for 6 to 12 hr at room temperature in a buffer containing 500 μM cold ATP, plus trace [^32P]-ATP in some experiments, (Vincent, I. et al., J Neurosci 17:3588-3598 (1997)).
Pin1 interactions with tau in AD brains were examined using a GST-Pin1 pulldown assay (Shen, M. et al., Genes Dev. 12:706-720 (1998)). Glutathione beads containing GST or GST-Pin1 were incubated with normal or AD brain extracts, or PHFs purified (Vincent, I. J. and Davies, P. Proc Natl Acad Sci USA 89:2878-2882 (1992)), and proteins associated with the beads were subjected to immunoblotting analysis using CP27, which recognizes all forms of tau. Recombinant and mutant Pin1 proteins were produced as N-terminal GST or His-tagged fusion proteins (Shen, M. et al., Genes Dev. 12:706-720 (1998)). PHFs were purified by immunoaffinity chromatography (Vincent, I. J. and Davies, P. Proc Natl Acad Sci USA 89:2878-2882 (1992)).
To determine whether Pin1 interacts with pT231-tau, GST-Pin1 beads were used to isolate tau from AD brain extracts or PHFs and T231 phosphorylation detected using CP9. Tau isolated by Pin1 beads was strongly immunoreactive with CP9. […] Thus, Pin1 binds pT231-tau through its WW-domain.

[2] = system: mitotically phosphorylated Cdc25C; assay: GST pull down of phosphorylated Cdc25C and CIP dephosphorylation; type: binding; details: for protection of bound Cdc25C from dephosphorylation by CIP: Cdc25C precipitated on GST beads, then CIP; for binding to Cdc25C (in words): mitotic versus interphase phosphorylated form
Source text: To confirm that Nedd4 WW-domains bind a specific phosphoprotein in a phosphorylation-dependent manner interactions between Nedd4 WW-domains and Cdc25C were examined. To various degrees, all three Nedd4 WW-domains bound the mitotically phosphorylated form, but not the interphase phosphorylated form of both HeLa Cdc25C and in vitro synthesized Xenopus Cdc25C. […] The Kd values for the phosphopeptides were also lower than those for the Pro-rich peptide that was thought to be a Nedd4 WW-domain-binding site (Table 1) (Chen, H. I., et al., Proc. Natl. Acad. Sci. USA 92:7819 (1995); Staub, O., et al., EMBO J. 15:2371 (1996); Bedford, M. J., et al., EMBO J., 16:2376 (1997)).
Interactions between the WW-domain of Pin1 and specific phosphorylated ligands were examined. To detect phosphorylation-dependent interaction, Cdc25C, Plk1 and Pin1 ligands, were synthesized by in vitro transcription and translation in the presence of ^35S-Met and incubated with Xenopus interphase or mitotic extracts or mitotic extracts followed by treatment with calf intestine phosphatase (M+CIP). Protein complexes were separated on SDS-gels either directly (input) or first subjected to GST pull down with the N-terminal WW-domain (amino acids 1-54) or C-terminal PPIase domain (amino acids 47-163) or the entire Pin1 protein (Shen, M. et al., Genes & Dev 12:706 (1998)). The labeled protein-GST bead complexes were washed extensively and bound proteins analyzed by SDS-PAGE and autoradiography using standard techniques.
To determine whether WW-domain binding protects dephosphorylation of its targets ^35S labeled (His)6 epitope tagged Cdc25C was phosphorylated by mitotic extracts and precipitated by GST fusion protein beads or Ni-NTA beads. The isolated Cdc25C was then incubated with control buffer or CIP, followed by separation on SDS-containing gels and autoradiography.

[3] = system: temperature-sensitive ptf1 yeast mutant (YPM2); assay: Rescue of temperature-sensitive ptf1 yeast mutant (in vivo function); type: cell-based; details: YPM2 cells, restrictive temperature
Method: Given the essential role of the WW-domain in conferring Pin1-binding specificity in vitro, a critical question is whether this domain is important in vivo. To address this question, experiments using the PIN1 yeast homologue, ESS1/PTF1 were performed. ESS1/PTF1 is essential for cell growth and human Pin1 can carry out this essential function when transfected into yeast cells (Lu, K. P. et al., Nature 380:544 (1996); Hanes, S. D. et al., Yeast 5:55 (1989); Hani, J. et al., FEBS Lett. 365:198 (1995)). A temperature-sensitive ptf1 mutant strain, YPM2, grows at the permissive temperature (23° C.), but not at the restrictive temperature (30° C.) (Hanes, S. D. et al., Yeast 5:55 (1989); Hani, J. et al., FEBS Lett. 365:198 (1995)). This phenotype is completely rescued by a 1.5 kb PTF1 genomic fragment, which also contains the promoter and the 3′ processing sequence (FIG. 3). To insure that all human Pin1 proteins were expressed at physiological levels under normal regulation, the coding sequence of the fully functional ESS1/PTF1 gene in a Yepvector was replaced with the coding sequence of the human PIN1 (or Pin1 mutant) cDNA (FIG. 3) and transformed into a temperature-sensitive ptf1 strain. Transformants were selected on minimal media minus Leu at the permissive temperature (23° C.) and protein expression was detected by immunoblotting analysis using 12CA5 monoclonal antibody specific for the HA epitope tag inserted at the N-terminus. […] Those strains expressing similar levels of Pin1 and Pin1 mutants were grown at permissive and nonpermissive temperature.

[4] = system: peptide substrate; assay: PPIase activity assay with peptide substrate; type: biochemical; details: relative to wild-type protein defined as 100%

Chain of phosphorylated tau (P10636 45-216 isoform P10636-2 limits assumed): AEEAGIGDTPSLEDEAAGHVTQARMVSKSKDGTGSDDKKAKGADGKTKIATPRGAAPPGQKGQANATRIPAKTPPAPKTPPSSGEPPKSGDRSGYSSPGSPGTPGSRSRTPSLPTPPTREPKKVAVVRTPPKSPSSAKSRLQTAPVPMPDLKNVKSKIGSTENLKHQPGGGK

Row | Substance | binding to Cdc2 phosphorylated tau [1] | protection of bound Cdc25C from dephosphorylation by CIP [2] | binding to Cdc25C (in words) [2] | complementation of temperature-sensitive ptf1 phenotype (in words) [3] | PPlase Activity (%) [4] | binding to tau of brain extracts ([1]; AD brain extracts, PHFs or age-matched normal brain extracts) | binding to tau incubated with Xenopus extracts ([1]; interphase or mitotic extracts)
1 | Pin1 WW-domain: N-terminal WW-domain (amino acids 1-54) of Pin1 (MADEEKLPPGWEKRMSRSSGRVYYFNHITNASQWERPSGNSSSGGKNGQGEPAR; left off: a dimerising Fc or GST) | bound Cdc2 phosphorylated tau | CIP failed to dephosphorylate Cdc25C | bound the phosphorylated Cdc25C in mitotic cell extracts, but not interphase extracts |  |  |  | 
2 | Pin1: wild-type human prolyl isomerase (PPIase) Pin1 with N-terminal WW-domain; tag cleaved in Table 2 | bound Cdc2 phosphorylated tau | CIP failed to dephosphorylate Cdc25C | bound the phosphorylated Cdc25C in mitotic cell extracts, but not interphase extracts | fully complemented the temperature-sensitive phenotype | 100% | did not bind tau in age-matched normal brain extracts | did bind tau that was phosphorylated by mitotic extracts
